# How the values were obtained:
# [1] = biological target: T1, PAF Binding, dog platelets (Canis lupus familiaris, UniProt A0A8I3NSH0); experiment: PAF Binding Assay (inhibition of 3H-PAF binding to washed dog platelets); conditions: dog platelets, 3H-PAF, 10 minutes at room temperature; read-out: Inhib of PAF Binding IC50
# T1 construct: Washed platelets were prepared by resuspending the platelet pellet once with PBS containing 1 mM EDTA; from tissue; host or cells: washed platelets from dog blood
# T1 sequence (A0A8I3NSH0 1-343): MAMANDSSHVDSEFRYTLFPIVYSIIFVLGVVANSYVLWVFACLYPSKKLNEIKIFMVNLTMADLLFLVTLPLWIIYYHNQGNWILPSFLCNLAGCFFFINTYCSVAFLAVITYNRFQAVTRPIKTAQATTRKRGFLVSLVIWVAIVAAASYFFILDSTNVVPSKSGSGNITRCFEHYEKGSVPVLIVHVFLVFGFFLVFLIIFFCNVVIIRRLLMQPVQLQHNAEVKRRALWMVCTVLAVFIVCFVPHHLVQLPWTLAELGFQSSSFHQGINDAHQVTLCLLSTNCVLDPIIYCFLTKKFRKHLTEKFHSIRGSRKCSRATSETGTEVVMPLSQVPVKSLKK
# Procedure: The binding assay was done in 400 μl polyethylene microcentrifuge tubes (Beckman) containing 50 μl of an oil mixture of 2 parts Siliconol AR200 (Serva): 1 part Silicone Fluid (Arthur H. Thomas). Buffer, standards, or analogs (150 μl total volume) were added to the tubes. Radiolabelled ^3 H-PAF (50 μl) was then added to the tubes. The reaction was started by the addition of 50 μl of dog platelets (2×10^7 platelets). The tubes were capped, inverted several times to mix, and incubated for 10 minutes at room temperature. The platelets were separated from the incubation mixture by centrifuging 1 minute in a Beckman Microfuge B centrifuge. The tip of the microfuge tube was cut off, and the platelets were washed out of the tip with 200 μl of 50% methanol (Burdick and Jackson). Aquasol (NEN, 10 ml) was added and the radioactivity in the samples was determined using an LS 8100 Beckman liquid scintillation counter linked to a Techtran tape recorder. Data was processed through an in-house computer system. Alternatively, radioactivity was determined using a Searle Mark III liquid scintillation counter linked to a Iso-Data microprocessor.
# (b) Preparation of Platelets
# Blood was collected from anesthesized or unanesthesized dogs into 50 ml plastic centrifuge tubes containing 3.8% sodium citrate as the anticoagulant (1 volume of citrate/9 volumes of blood). The red cells were removed by centrifugation for 15 minutes at 600 rpm (100-125 g) at room temperature. An aliquot of the supernatant platelet rich plasma (PRP) was saved for cell counting and the remainder was acidified to PH 6.5 with 0.15M citric acid. The platelet pellet was obtained after a 10 minute centrifugation at 2000 rpm (1000 g) at room temperature. Washed platelets were prepared by resuspending the platelet pellet once with PBS containing 1 mM EDTA, centrifuging as noted, and then resuspending the platelets in 0.1% BSA-PBS. An aliquot of the washed platelets was counted. Platelets used for binding assays were diluted to 2×10^7 platelets/assay tube (4×10^8 platelets/ml). Platelet counting was done using a Royco Cell-Crit 921.
# [2] = test system: PAF-Induced Bronchoconstriction; experiment: PAF Induced Bronchoconstriction Assay; format: in vivo, guinea pig; conditions: for inhibition in vivo at 50 mg/kg: Cavia porcellus, po, 2-hour pretreatment, read-out: Percent Inhib. of PAF-Induced Bronchoconstriction, 50 mg/Kg p.o.; for Percent Inhib. of PAF-Induced Bronchoconstriction, mg/Kg i.v.: i.v. (dose not given), 1 minute pretreatment, PAF 1.0 μg/kg i.v.
# Procedure: PAF Induced Bronchoconstriction Assay
# Male animals (Hartlet Strain 400-500 g) were anesthetized with urethane (2 g/kg. i.p.). Each animals' trachea was cannulated and the guinea pigs were repirated using a Harvard small animal rodent respirator (3.0 cc stroke volume, 40 breaths per min.). Tracheal pressure was recorded from a cannula inserted in the trachea and connected to a Statham Pressure Transducer.
# The jugular vein was cannulated for administering compounds. Spontaneous breathing was arrested with succinylcholine (1.2 mg/kg. i.v.) administered 2 minutes prior to intravenous injection of platelet activating factor (PAF).
# For, the intravenous testing, the guinea pig is given a 5-minute pretreatment with propranolol at a dose of 0.1 mg/kg intravenously. The test compound is administered with a 1 minute pretreatment prior to intravenous challenge with PAF. The animal is than challenged with a 1.0 μg/kg intravenous dose of PAF and the change is tracheal pressure is measured.
# For the oral testing, the procedure includes a 2-hour pretreatment period with the test compound administered through an oral gavage tube. Propranolol or succinylcholine and PAF are administered intravenously, and the change in tracheal pressure measured.
# The change is tracheal pressure is determined by subtracting the steady state baseline achieved after administration of succinylcholine from the peak bronchoconstriction seen after challenge with PAF. The mean is calculated for each test compound and compared to the mean of the control animals to give the percent inhibition of bronchoconstriction. The standard error is calcuated as the standard error of the mean.
SMILES,IC50 [1],inhibition in vivo at 50 mg/kg ([2]; 50 mg/Kg p.o.),"Percent Inhib. of PAF-Induced Bronchoconstriction, mg/Kg i.v. [2]","Percent Inhib. of PAF-Induced Bronchoconstriction, 50 mg/Kg p.o. (6 hr) ([2]; 50 mg/Kg p.o., (6 hr))","Percent Inhib. of PAF-Induced Bronchoconstriction, 50 mg/Kg p.o. (8 hr) ([2]; 50 mg/Kg p.o.)"
"CCCCC/C(=C\C=C\C(=O)N[C@@H](C)CCCc1cccnc1)c1ccc(OC)cc1 [[S-(E,E)]-5-(4-methoxyphenyl)-N-[1-methyl-4-(3-pyridinyl)butyl]-2,4-decadienamide]",0.12 µM,25 ± 13%,46 ± 16%,–,–
"CCCC(CCCc1cccnc1)NC(=O)/C=C/C=C(c1ccc(OC)cc1)c1ccc(OC)cc1 (racemic) [[R,S-(E)]-5,5-bis(4-methoxyphenyl)-N-[1-propyl-4-(3-pyridinyl)butyl]-2,4-pentadienamide]",> 1 µM,–,24 ± 13%,–,–
"COc1ccc(C(=C/C=C/C(=O)NC(CCCc2cccnc2)c2ccc(Br)cc2)c2ccc(OC)cc2)cc1 (racemic) [[R,S-(E)]-N-[1-(4-bromophenyl)-4-(3-pyridinyl)butyl]-5,5-bis(4-methoxyphenyl)2.4-pentadienamide]",> 1 µM,–,6 ± 13%,–,–
"CC[C@H](CCCc1cccnc1)NC(=O)/C=C/C=C(c1ccc(OC)cc1)c1ccc(OC)cc1 [[R-(E)]-N-[1-ethyl-4-(3-pyridinyl)butyl]-5,5-bis(4-methoxyphenyl)-2,4-pentadienamide]",0.12 µM,99 ± 1%,99 ± 0.4%,–,85 ± 12%
"CCCCCCCCCCCC/C(=C\C=C\C(=O)N[C@H](C)CCCc1cccnc1)c1ccc(OC)cc1 [[R-(E,E)]-5-(4-methoxyphenyl)-N-[1-methyl-4-(3-pyridinyl)butyl]-2,4-heptadecadienamide]",0.045 µM,–,28 ± 2%,–,–
"COc1ccc(C(=C/C=C/C(=O)NCCCCCc2ccccn2)c2ccc(OC)cc2)cc1 [(E)-5,5-bis(4-methoxyphenyl)-N-[5-(2-pyridinyl)pentyl]-2,4-pentadienamide]",1 µM,–,27 ± 6%,–,–
"CCC(CCCc1cccnc1)NC(=O)/C=C/C=C(c1ccc(OC)cc1)c1ccc(OC)cc1 (racemic) [[R,S-(E)]-N-1-ethyl-4-(3-pyridinyl)butyl]-5,5-bis(4-methoxyphenyl)-2,4-pentadienamide]",0.09 µM,99 ± 1%,86 ± 8%,–,–
"COc1ccc(C(=C/C=C/C(=O)NCCCc2ccncc2)c2ccc(OC)cc2)cc1 [(E)-5,5-bis(4-methoxyphenyl)-N-[3-(4-pyridinyl)propyl]-2,4-pentadienamide]",0.1 µM,–,8 ± 12%,–,–
"CCCCC/C(=C/C=C/C(=O)N[C@H](C)CCCc1cccnc1)c1cccc(F)c1 [[R-(2E,4Z)]-5-(3-fluorophenyl)-N-[1-methyl-4-(3-pyridinyl)butyl]-2,4-decadienamide]",0.105 µM,–,93 ± 1%,–,–
"COc1ccc(/C(=C\C=C\C(=O)NCCCCc2cccnc2)c2ccccc2OC)cc1 [(E,E)-5-(2-methoxyphenyl)-5-(4-methoxyphenyl)-N-[4-(3-pyridinyl)butyl]-2,4-pentadienamide]",0.045 µM,21 ± 7%,80 ± 5%,–,–
"Cc1ccc(C(=C/C=C/C(=O)N[C@H](C)CCCc2cccnc2)c2ccc(C)cc2)cc1 [[R-(E)]-5,5-bis(4-methylphenyl)-N-[1-methyl-4-(3-pyridinyl)butyl]-2,4-pentadienamide]",0.25 µM,91 ± 7%,97 ± 3%,–,14 ± 16%

# These reach a lower IC50 [1]. Values come first.
IC50 [1],SMILES,inhibition in vivo at 50 mg/kg ([2]; 50 mg/Kg p.o.),"Percent Inhib. of PAF-Induced Bronchoconstriction, mg/Kg i.v. [2]","Percent Inhib. of PAF-Induced Bronchoconstriction, 50 mg/Kg p.o. (6 hr) ([2]; 50 mg/Kg p.o., (6 hr))","Percent Inhib. of PAF-Induced Bronchoconstriction, 50 mg/Kg p.o. (8 hr) ([2]; 50 mg/Kg p.o.)"
0.006 µM,"CCCCC/C(=C\C=C\C(=O)N[C@H](C)CCCc1cccnc1)c1ccc(OC)c(OC)c1 [[R-(E,E)]-5-(3,4-dimethoxyphenyl)-N-[1-methyl-4-(3-pyridinyl)butyl]-2,4-decadienamide]",–,99 ± 0.4%,–,–
0.005 µM,"CCCCCCCC/C(=C\C=C\C(=O)N[C@H](C)CCCc1cccnc1)c1ccc(OC)cc1 [[R-(E,E)]-5-(4-methoxyphenyl)-N-[1-methyl-4-(3-pyridinyl)butyl]-2,4-tridecadienamide]",84 ± 8%,98 ± 1%,–,–
0.016 µM,"COc1ccc(/C(=C/C=C/C(=O)N[C@H](C)CCCc2cccnc2)c2cccs2)cc1 [[R-(2E,4Z)]-5-(4-methoxyphenyl)-N-[1-methyl-4-(3-pyridinyl)butyl]-5-(2-thienyl)-2,4-pentadienamide]",96 ± 2%,97 ± 1%,27 ± 6%,–
0.025 µM,"COc1ccc(/C(=C\C=C\C(=O)NCCCCc2cccnc2)c2cccnc2)cc1 [(E,E)-5-(4-methoxyphenyl)-5-(3-pyridinyl)-N-[4-(3-pyridinyl)butyl]-2,4-pentadienamide]",85 ± 8%,97 ± 0.6%,–,–
0.009 µM,"CCCCCC/C(=C\C=C\C(=O)N[C@H](C)CCCc1cccnc1)c1ccc(OC)cc1 [[R-(E,E)]-5-(4-methoxyphenyl)-N-[1-methyl-4-(3-pyridinyl)butyl]-2,4-undecadienamide]",96 ± 1%,100 ± 1%,–,–
0.01 µM,"COc1ccc(C(=C/C=C/C(=O)Nc2ccc(-c3cccnc3)cc2)c2ccc(OC)cc2)cc1 [(E)-5,5-bis-(4-methoxyphenyl)-N-[4-(3-pyridinyl)phenyl]-2,4-pentadienamide]",84 ± 8%,97 ± 1%,–,–
0.025 µM,COc1ccc(C(=C/C=C/C(=O)NCCOCc2cccnc2)c2ccc(OC)cc2)cc1,–,48 ± 7%,–,–
0.015 µM,"CCCC/C(=C\C=C\C(=O)N[C@H](C)CCCc1cccnc1)c1cccc(OC)c1 [[R-(E,E)]-5-(3-methoxyphenyl)-N-[1-methyl-4-(3-pyridinyl)butyl]-2,4-nonadienamide]",–,91 ± 5%,–,–
0.015 µM,"CCCCC/C(=C\C=C\C(=O)NCCCCc1cccnc1)c1ccc(OC)cc1 [(E,E)-5-(4-methoxyphenyl)-N-[4-(3-pyridinyl)butyl]-2,4-decadienamide]",26 ± 2%,99 ± 1%,–,–
0.04 µM,"COc1ccc(/C(=C\C=C\C(=O)N[C@H](C)CCCc2cccnc2)C(C)C)cc1 [[R-(2E,4Z)]-5-(4-methoxyphenyl)-6-methyl-N-[1-methyl-4-(3-pyridinyl)butyl]-2,4-heptadienamide]",71 ± 14%,89 ± 3%,–,–
0.025 µM,"COc1ccc(/C(C)=C/C=C/C(=O)N[C@H](C)CCCc2cccnc2)cc1 [[R-(E,E)]-5-(4-methoxyphenyl)-N-[1-methyl-4-(3-pyridinyl)butyl]-2,4-hexadienamide]",–,42 ± 16%,–,–
